Laboratory results: patent US9732075B2, “Benzimidazole-proline derivatives” (IDORSIA PHARMACEUTICALS LTD, priority 2012, dated 2017)
pIC50: −log10 of the molar value.

What was measured:
human orexin-1 receptor = human orexin-1 receptor (Homo sapiens (Human), UniProt O43613); assay: In vitro assay: intracellular calcium measurements (FLIPR), antagonistic activity; assay type: cell-based; conditions: CHO cells expressing human orexin-1 receptor, orexin-A agonist, geometric mean, read-out: IC50 Ox1
Chain of human orexin-1 receptor (O43613 whole entry): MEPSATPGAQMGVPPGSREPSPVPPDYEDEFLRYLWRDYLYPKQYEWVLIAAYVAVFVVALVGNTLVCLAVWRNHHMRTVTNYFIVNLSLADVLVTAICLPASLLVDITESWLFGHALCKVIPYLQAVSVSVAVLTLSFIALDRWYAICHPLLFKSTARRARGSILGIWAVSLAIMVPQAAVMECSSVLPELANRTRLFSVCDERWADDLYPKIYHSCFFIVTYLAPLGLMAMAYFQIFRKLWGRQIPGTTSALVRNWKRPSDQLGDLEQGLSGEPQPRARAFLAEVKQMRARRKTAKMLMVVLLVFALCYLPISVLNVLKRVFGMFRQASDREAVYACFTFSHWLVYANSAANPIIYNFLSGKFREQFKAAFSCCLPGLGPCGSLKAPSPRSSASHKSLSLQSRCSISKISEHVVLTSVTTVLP
How it was run: (§1)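 Orexin-A-evoked calcium rise (3 nM final, roughly EC70) was recorded with fluo-4 in recombinant CHO cells, human receptor subtype 1 or 2.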

human orexin-2 receptor = human orexin-2 receptor (Homo sapiens (Human), UniProt O43614); assay: as above; assay type: cell-based; conditions: CHO cells expressing human orexin-2 receptor, orexin-A agonist, geometric mean, read-out: IC50 Ox2
Chain of human orexin-2 receptor (O43614 whole entry): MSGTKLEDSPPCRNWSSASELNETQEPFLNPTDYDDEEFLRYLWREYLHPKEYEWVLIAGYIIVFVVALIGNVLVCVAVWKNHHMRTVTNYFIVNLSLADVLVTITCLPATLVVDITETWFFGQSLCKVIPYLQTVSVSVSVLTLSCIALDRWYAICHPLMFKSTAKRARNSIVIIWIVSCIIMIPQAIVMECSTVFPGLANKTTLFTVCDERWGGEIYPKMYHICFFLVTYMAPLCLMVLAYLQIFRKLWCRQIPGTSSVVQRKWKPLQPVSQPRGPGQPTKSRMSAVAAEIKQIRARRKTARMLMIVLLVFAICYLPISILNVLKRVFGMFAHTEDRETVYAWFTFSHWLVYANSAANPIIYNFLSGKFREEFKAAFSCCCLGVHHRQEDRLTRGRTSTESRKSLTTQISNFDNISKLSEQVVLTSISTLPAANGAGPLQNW
How it was run: as §1

| SMILES | pIC50 (human orexin-1 receptor) | pIC50 (human orexin-2 receptor) |
| --- | --- | --- |
| Cc1nc(C(=O)N2CC[C@H](C)[C@H]2c2nc3c(C(F)(F)F)cccc3[nH]2)c(-c2cc(F)cc(F)c2)s1 [Ex. 4.157] | 7.89 | 5.77 |
| Cc1cccc(-c2sc(C)nc2C(=O)N2CC[C@H](C)[C@H]2c2nc3c(C(F)(F)F)cccc3[nH]2)c1 [Ex. 4.158] | 8.70 | 6.51 |
| COc1ccc(-c2sc(C)nc2C(=O)N2CC[C@H](C)[C@H]2c2nc3c(C(F)(F)F)cccc3[nH]2)cc1 [Ex. 4.159] | 8.40 | 6.67 |
| Cc1ccc(-c2sccc2C(=O)N2CC[C@H](C)[C@H]2c2nc3c(C(F)(F)F)cccc3[nH]2)cc1C [Ex. 4.160] | 8.70 | 7.57 |
| Cc1ccc(-c2ccccn2)c(C(=O)N2CC[C@H](C)[C@H]2c2nc3c(C)c(Cl)ccc3[nH]2)c1 [Ex. 4.161] | 8.70 | 6.72 |
| Cc1c(Cl)ccc2[nH]c([C@@H]3[C@@H](C)CCN3C(=O)c3cc(Cl)ccc3-c3ccccc3)nc12 [Ex. 4.162] | 8.70 | 6.52 |
| Cc1ccc(-c2cccnc2)c(C(=O)N2CC[C@H](C)[C@H]2c2nc3c(C)c(Cl)ccc3[nH]2)c1 [Ex. 4.163] | 7.70 | 5.36 |
| Cc1c(Cl)ccc2[nH]c([C@@H]3[C@@H](C)CCN3C(=O)c3cc(F)ccc3-c3ccccc3)nc12 [Ex. 4.164] | 8.15 | 6.14 |
| Cc1c(Cl)ccc2[nH]c([C@@H]3[C@@H](C)CCN3C(=O)c3cc(F)ccc3-c3ccccn3)nc12 [Ex. 4.165] | 7.70 | 6.01 |
| Cc1c(Cl)ccc2[nH]c([C@@H]3[C@@H](C)CCN3C(=O)c3cc(C#N)ccc3-c3ccccc3)nc12 [Ex. 4.166] | 8.70 | 6.25 |
| Cc1ccc(C(=O)N2CC[C@H](C)[C@H]2c2nc3c(C)c(Cl)ccc3[nH]2)c(-c2ccccn2)c1 [Ex. 4.167] | 7.89 | 6.84 |
| Cc1ccc(C(=O)N2CC[C@H](C)[C@H]2c2nc3c(C)c(Cl)ccc3[nH]2)c(-c2ccccc2)c1 [Ex. 4.168] | 8.00 | 6.31 |
| Cc1c(Cl)ccc2[nH]c([C@@H]3[C@@H](C)CCN3C(=O)c3c(F)cccc3-c3ccccc3)nc12 [Ex. 4.169] | 8.40 | 6.05 |
| Cc1c(Cl)ccc2[nH]c([C@@H]3[C@@H](C)CCN3C(=O)c3cc(C(F)(F)F)ccc3-c3ccccc3)nc12 [Ex. 4.170] | 7.96 | 5.84 |
| Cc1ccc(-c2ccccc2)c(C(=O)N2CC[C@H](C)[C@H]2c2nc3c(C)c(Cl)ccc3[nH]2)c1F [Ex. 4.171] | 8.82 | 6.24 |
| Cc1ccc(-c2ccccc2)c(C(=O)N2CC[C@H](C)[C@H]2c2nc3c(C)c(Cl)ccc3[nH]2)c1 [Ex. 4.172] | 8.70 | 6.34 |
| Cc1ccc(-c2cccnc2)c(C(=O)N2CC[C@H](C)[C@H]2c2nc3c(C)c(Cl)ccc3[nH]2)c1F [Ex. 4.173] | 7.89 | 5.20 |
| Cc1ccc(C(=O)N2CC[C@H](C)[C@H]2c2nc3c(C)c(Cl)ccc3[nH]2)c(-c2ncccn2)c1 [Ex. 4.174] | 7.92 | 6.88 |
| Cc1c(Cl)ccc2[nH]c([C@@H]3[C@@H](C)CCN3C(=O)c3cc(F)ccc3-c3ncccn3)nc12 [Ex. 4.175] | 7.85 | 6.60 |
| Cc1ccc(-c2ncccn2)c(C(=O)N2CC[C@H](C)[C@H]2c2nc3c(C)c(Cl)ccc3[nH]2)c1F [Ex. 4.176] | 7.82 | 5.97 |

| SMILES | pIC50 (human orexin-1 receptor) | pIC50 (human orexin-2 receptor) |
| --- | --- | --- |
| Cc1c(Cl)ccc2[nH]c([C@@H]3[C@@H](C)CCN3C(=O)c3c(F)cccc3-c3ncccn3)nc12 [Ex. 4.177] | 8.05 | 6.66 |
| Cc1ccc(-c2ncccn2)c(C(=O)N2CC[C@H](C)[C@H]2c2nc3c(C)c(Cl)ccc3[nH]2)c1 [Ex. 4.178] | 8.15 | 6.46 |
| COc1cc2nc([C@@H]3[C@@H](C)CCN3C(=O)c3cc(C)ccc3-c3ncccn3)[nH]c2cc1OC [Ex. 4.179] | 7.57 | 7.16 |
| Cc1ccc(-c2ncccn2)c(C(=O)N2CC[C@H](C)[C@H]2c2nc3cc(Cl)c(C)cc3[nH]2)c1 [Ex. 4.180] | 8.10 | 6.52 |
| Cc1ccc(-c2ncccn2)c(C(=O)N2CC[C@H](C)[C@H]2c2nc3ccc(Cl)c(C)c3[nH]2)c1 [Ex. 4.181] | 8.52 | 6.64 |
| Cc1ccc(-c2ncccn2)c(C(=O)N2CC[C@H](C)[C@H]2c2nc3cc(Cl)cc(C)c3[nH]2)c1 [Ex. 4.182] | 8.15 | 6.16 |
| Cc1ccc(-c2ncccn2)c(C(=O)N2CC[C@H](C)[C@H]2c2nc3cc(C)c(C)cc3[nH]2)c1 [Ex. 4.183] | 7.03 | 5.65 |
| Cc1ccc(-n2nccn2)c(C(=O)N2CCC[C@@]2(C)c2nc3c(C)c(Cl)ccc3[nH]2)c1 [Ex. 5.2] | 8.70 | 8.30 |
| Cc1nc(C(=O)N2CCC[C@@]2(C)c2nc3c(C)c(Cl)ccc3[nH]2)c(-c2ccccc2)s1 [Ex. 5.3] | 8.70 | 8.40 |
| Cc1nc(C(=O)N2CCC[C@@]2(C)c2nc3c(C)cccc3[nH]2)c(-c2cccc(Cl)c2)s1 [Ex. 5.4] | 8.00 | 8.22 |
| Cc1nc(C(=O)N2CCC[C@@]2(C)c2nc3c(C)c(Cl)ccc3[nH]2)c(-c2cccc(Cl)c2)s1 [Ex. 5.5] | 8.52 | 8.30 |
| Cc1ccc(-n2nccn2)c(C(=O)N2CCC[C@@]2(C)c2nc3c(C)cccc3[nH]2)c1 [Ex. 5.6] | 7.49 | 7.23 |
| Cc1ccc(-n2nccn2)c(C(=O)N2CCC[C@@]2(C)c2nc3cc(Cl)c(Cl)cc3[nH]2)c1 [Ex. 5.7] | 8.30 | 7.54 |
| Cc1ccc(-n2nccn2)c(C(=O)N2CCC[C@@]2(C)c2nc3cc(Br)ccc3[nH]2)c1 [Ex. 5.8] | 7.89 | 6.89 |
| Cc1ccc(-n2nccn2)c(C(=O)N2CCC[C@@]2(C)c2nc3cc(C(F)(F)F)ccc3[nH]2)c1 [Ex. 5.9] | 8.10 | 7.09 |
| Cc1ccc(-n2nccn2)c(C(=O)N2CCC[C@@]2(C)c2nc3cc(C)c(C)cc3[nH]2)c1 [Ex. 5.10] | 8.22 | 7.80 |
| Cc1ccc(-n2nccn2)c(C(=O)N2CCC[C@@]2(C)c2nc3cc(Cl)ccc3[nH]2)c1 [Ex. 5.11] | 7.54 | 6.38 |
| Cc1ccc(-n2nccn2)c(C(=O)N2CCC[C@@]2(C)c2nc3cc(F)c(Cl)cc3[nH]2)c1 [Ex. 5.12] | 7.82 | 6.87 |
| Cc1ccc(-n2nccn2)c(C(=O)N2CCC[C@@]2(C)c2nc3cc(C(C)(C)C)ccc3[nH]2)c1 [Ex. 5.13] | 8.22 | 7.51 |
| Cc1ccc(-n2nccn2)c(C(=O)N2CCC[C@@]2(C)c2nc3c(Cl)cc(C(F)(F)F)cc3[nH]2)c1 [Ex. 5.14] | 8.22 | 7.51 |

| SMILES | pIC50 (human orexin-1 receptor) | pIC50 (human orexin-2 receptor) |
| --- | --- | --- |
| Cc1ccc(-n2nccn2)c(C(=O)N2CCC[C@@]2(C)c2nc3cc(Cl)c(C)cc3[nH]2)c1 [Ex. 5.15] | 8.30 | 7.66 |
| Cc1ccc(-n2nccn2)c(C(=O)N2CCC[C@@]2(C)c2nc3c(C)cc(C)cc3[nH]2)c1 [Ex. 5.16] | 7.80 | 7.74 |
| Cc1ccc(-n2nccn2)c(C(=O)N2CCC[C@@]2(C)c2nc3c(C(F)(F)F)cccc3[nH]2)c1 [Ex. 5.17] | 7.96 | 7.12 |
| Cc1ccc(-n2nccn2)c(C(=O)N2CCC[C@@]2(C)c2nc3c(Br)cccc3[nH]2)c1 [Ex. 5.18] | 7.64 | 7.08 |
| Cc1ccc(-n2nccn2)c(C(=O)N2CCC[C@@]2(C)c2nc3cc(OC(F)(F)F)ccc3[nH]2)c1 [Ex. 5.20] | 7.72 | 6.79 |
| COc1cc2nc([C@]3(C)CCCN3C(=O)c3cc(C)ccc3-n3nccn3)[nH]c2cc1OC [Ex. 5.21] | 7.66 | 7.74 |
| Cc1ccc(-n2nccn2)c(C(=O)N2CCC[C@@]2(C)c2nc3cc(C(F)(F)F)c(F)cc3[nH]2)c1 [Ex. 5.22] | 8.15 | 7.07 |
| Cc1ccc(-n2nccn2)c(C(=O)N2CCC[C@@]2(C)c2nc3cc(F)c(Br)cc3[nH]2)c1 [Ex. 5.23] | 7.82 | 7.10 |
| Cc1ccc(-n2nccn2)c(C(=O)N2CCC[C@@]2(C)c2nc3cc(C(F)(F)F)c(Cl)cc3[nH]2)c1 [Ex. 5.24] | 8.70 | 8.05 |
| Cc1ccc(-n2nccn2)c(C(=O)N2CCC[C@@]2(C)c2nc3c(Br)cc(F)cc3[nH]2)c1 [Ex. 5.25] | 7.57 | 7.09 |
| Cc1ccc(-n2nccn2)c(C(=O)N2CCC[C@@]2(C)c2nc3c(Cl)cccc3[nH]2)c1 [Ex. 5.26] | 7.41 | 6.71 |
| Cc1ccc(-n2nccn2)c(C(=O)N2CCC[C@@]2(C)c2nc3c(F)c(F)ccc3[nH]2)c1 [Ex. 5.27] | 7.34 | 6.29 |
| Cc1ccc(-n2nccn2)c(C(=O)N2CCC[C@@]2(C)c2nc3c(C)c(C)ccc3[nH]2)c1 [Ex. 5.28] | 8.40 | 7.72 |
| Cc1ccc(-n2nccn2)c(C(=O)N2CCC[C@@]2(C)c2nc3c(C(C)C)cccc3[nH]2)c1 [Ex. 5.29] | 7.89 | 7.23 |
| Cc1ccc(-n2nccn2)c(C(=O)N2CCC[C@@]2(C)c2nc3cc(SC(F)(F)F)ccc3[nH]2)c1 [Ex. 5.30] | 7.24 | 6.79 |
| COc1ccc(OC)c2[nH]c([C@]3(C)CCCN3C(=O)c3cc(C)ccc3-n3nccn3)nc12 [Ex. 5.31] | 7.36 | 6.13 |
| COc1ccc2[nH]c([C@]3(C)CCCN3C(=O)c3cc(C)ccc3-n3nccn3)nc2c1 [Ex. 5.32] | 7.05 | 7.34 |
| Cc1ccc(-n2nccn2)c(C(=O)N2CCC[C@@]2(C)c2nc3c4c(ccc3[nH]2)OCCO4)c1 [Ex. 5.33] | 7.60 | 7.54 |
| Cc1c(Cl)ccc2[nH]c([C@]3(C)CCCN3C(=O)c3cc(Cl)ccc3-n3nccn3)nc12 [Ex. 5.34] | 8.70 | 8.05 |
